Measured values reported in patent publication US20110039947A1, “SURFACE-MODIFIED NANOPARTICLES” (3M Innovative Properties Company, priority 2008, published 2011).

Experiment: Pharmaceutical performance: Aerolizer DPI with Next Generation Pharmaceutical Impactor (NGI)
Format: physicochemical
Settings: nominally 2 mg powder, NGI at 60 lpm for 4 seconds, respirable limit 4.5 micrometers
Procedure: Samples of micronized lactose and micronised budesonide powder were tested in addition to testing samples of nanoparticle-modified lactose and nanoparticle-modified budesonide powders. The NGI was coupled with a USP throat (United States Pharmacopeia, USP 24 <601>Aerosols, Metered Dose Inhalers, and Dry Powder Inhalers) and operated at a volumetric flow rate of 60 liters per minute (lpm) for a collection time of four seconds. A suitable coupler was affixed to the USP throat to provide an air-tight seal between the DPI device and the throat. For all testing, the stage cups of the NGI were coated with a surfactant to prevent particle bounce and re-entrainment. The amount of lactose or budesonide collected on each component of the NGI testing apparatus was determined by rinsing the component with a measured volume of an appropriate solvent and subjecting the rinsed material to high pressure liquid chromatography (HPLC) analysis with charged aerosol detection to determine lactose or budesonide concentration. Data that was returned from HPLC analysis was analyzed to determine the average amount of drug collected on the DPI and capsule, the USP throat, and on each component of the NGI per delivered dose. Using the individual component values, the respirable fraction and delivery efficiency were calculated for each powder sample. […]

O.OC[C@H]1O[C@@H](O[C@H]2[C@H](O)[C@@H](O)[C@@H](O)O[C@@H]2CO)[C@H](O)[C@@H](O)[C@H]1O [Comparative Example C4, α-Lactose monohydrate]
% Delivery Efficiency: 34%
% Respirable Fraction: 63%
